Experimental data published in patent US20250303006A1, “BIOCOMPATIBLE ANTISEPTIC COMPOSITION CONTAINING 9-HYDROXYCALABAXANTHONE AND/OR RELATED XANTHONES” (UNIVERSITAT DE LES ILLES BALEARS, priority 2022, published 2025).

Experiments:
[1] = system: human gingival fibroblast cells; assay: LDH cytotoxicity in immortalized human gingival fibroblasts; assay type: cell-based
Experimental: Cells were seeded in 48-well plates at a density of 2×10^4 cells/well. When the cells reached confluence, they were treated with different concentrations of HCX, and cytotoxicity was determined.
48 hours after seeding the iHGF cells in 48-well plates, cell inflammation was induced by means of adding 1 μg/ml of P. gingivalis lipopolysaccharide (LPS) (InvivoGen, San Diego, CA, USA) and the cells were treated with different concentrations of HCX (0.00002, 0.0002, 0.002%) in a fibroblast medium with 50 μg/ml of ascorbic acid (Sigma-Aldrich, St. Louis, MO, USA) for 48 hours. Images of the cells were taken with a bright field inverted microscope (Nikon Eclipse TS100) before treatment and 24 hours and 48 hours after treatment.
To estimate the cytotoxicity of the different concentrations of HCX, the presence of lactate dehydrogenase (LDH) in the culture media 48 h after pro-inflammatory stimulation with LPS and treatment with HCX was used as the cell death index. Following the manufacturer's instructions (Cytotoxicity Detection kit, Roche Diagnostics, Mannheim, Germany), LDH activity was determined spectrophotometrically after a 30-minute incubation at room temperature (RT) of 50 μl of culture media and 50 μl of the reaction mixture, measuring nicotinamide adenine dinucleotide (NADH) oxidation at 490 nm in the presence of pyruvate. Results were presented in relation to LDH activity of the media of the cells seeded without treatment (negative control, 0% cell death) and in relation to cells treated with 1% Triton X-100 (positive control, 100% death) using the following equation: Cytotoxicity (%)=[(expected value−negative control)/(positive control−negative control)]×100.
Different hydrogel formulations with and without 0.05% of HCX (HA, GelMa, Alginate and HPMC) and commercial gel containing 0.2% chlorhexidine and unmodified HA (Periokin Hyaluronic 1%, Laboratorios Kin, Commercial HA 0.2% CHX) were used for studies with gingival fibroblasts and S. epidermidis. Cells and bacteria without hydrogels served as negative control (C−). Gels at a concentration of 5% (v/v) were used for cell and bacterial studies.
Immortalized human gingival fibroblasts were cultured like in experiment 1 of section 1.2. The cells were treated with different hydrogel formulations with and without 0.05% of HCX (HA, GelMa, Alginate and HPMC) and commercial gel containing 0.2% chlorhexidine and unmodified HA (Periokin Hyaluronic 1%, Laboratorios Kin, commercial HA 0.2% CHX) in a fibroblast medium for 24 hours (n=4). Cell cytotoxicity was measured, like in experiment 1 of section 1.4.
16.1. […]
Immortalized human gingival fibroblasts were cultured like in experiment 1 of section 1.2. […] Cell cytotoxicity was measured, like in experiment 1 of section 1.4.

bacterial plaque biofilm = assay: In vitro bacterial plaque biofilm formation from pooled human saliva; assay type: cell-based; conditions: 0.05% HCX solution, slides immersed 2 min on days 2 and 3; equal to 0.2% chlorhexidine
Experimental: This is an in vitro study using pooled human saliva as a test substrate to compare the ability of 9-hydroxycalabaxanthone (HCX) versus chlorhexidine (CHX) and control to prevent or reduce plaque biofilm buildup.
Human saliva from different donors was collected and pooled. 15 ml of the pooled saliva supplemented with 0.1% sucrose was pipetted into sterile 40 ml containers and then a glass microscope slide was submerged below 2 cm of saliva in each container and incubated at 37° C. for bacterial biofilm formation. Twice a day the slide was immersed in TSB culture medium. On days 2 and 3, the biofilm was treated with different groups: (1) a solution containing 0.05% 9-hydroxycalabaxanthone (HCX) (n=6), (2) a solution containing 0.2% chlorhexidine (CHX) (n=6), and a solution containing water (C−) (n=6), by immersing the slides for 2 min in the test of the assigned product. […] The removed biofilms were subjected to sonication using three 15 s pulses with a power of 7 W. The homogenized bacterial suspension was used to determine the bacterial viability both by quantification of colony-forming units (CFU) per mL and by LIVE/DEAD assay.
For the Bacterial viability assay, an aliquot (0.1 mL) of the homogenized bacterial suspension was serially diluted and plated on TSB agar. The plates were incubated in 5% CO2 at 37° C. for 48 h, and then the number of CFU/mL was determined. […]

C. acnes = C. acnes culture and proliferation assay; assay type: cell-based, Cutibacterium acnes; conditions: 0.0002% HCX, 24 h
Experimental: C. acnes 5684 (CECT, Valencia, Spain) was grown on Tryptic soy broth (TSB) (Scharlab), supplemented with 0.5 g/I L-Cysteine hydrochloride (Thermo Fisher Scientific), 1.0 mg/I hemin (Thermo Fisher Scientific) and 5.0 mg/I glucose (Scharlab) under anaerobic conditions (10% H2, 10% CO2 and 80% N2) achieved with an Oxoid Anaerogen™ sachet (Thermo Fisher Scientific) at 37° C. for 48 h. After overnight incubation, 1 mL of C. acnes was incubated with different concentrations of CHX (0.01, 0.005, 0.003, 0.001%) and HCX (0.003, 0.002, 0.001, 0.0002%) for 24 hours at 37° C. under anaerobic conditions achieved with an Oxoid Anaerogen™ sachet. Bacterial suspension without treatment served as negative control (C−). The optical density (OD) was measured at 600 nm at 0 h and 24 h to determine bacterial proliferation (PowerWave Ht). The bacterial growth rate (μ) was calculated during the exponential growth phase following the equation ln ODt−ln OD0=μ×(t−t0) (n=4). The live/Dead ratio of bacteria was determined using the LIVE/DEAD BacLight bacterial viability kit (Invitrogen), following the manufacturer's instructions. The assays were carried out in triplicate.

## COc1c(O)cc2oc3cc4c(c(O)c3c(=O)c2c1CC=C(C)C)C=CC(C)(C)O4 [HCX, 9-hydroxycalabaxanthone]
[1]; HCX 0.00002, 0.0002, 0.002%, 48 h, LPS-stimulated iHGF
  cytotoxicity evaluated by activity of lactate dehydrogenase (LDH) released into the medium: not observed
[1]; formulated in solution
  concentration that can be applied to cells and tissues: up to 0.002%
Bacterial plaque biofilm
  plaque biofilm bacteria formation (live/dead ratio, CFU/mL): reduced plaque biofilm bacteria formation
C. acnes
  bacteria eliminated: 96%
